Measurements published in patent US4401827A, “Novel acyl-derivatives of carnitine and process for their preparation” (Sigma-Tau, priority 1978, dated 1983).
Like-named read-outs stand apart in the source and are kept apart here.

Columns and labels:
[1] = test system: arrhythmia induced by Aconitine in mice; assay: arrhythmia induced by Aconitine in mice; format: in vivo; conditions: for change in vivo at 300 mg/kg / change in vivo at 150 mg/kg / change in vivo at 89 mg/kg / change in vivo at 75 mg/kg / change in vivo at 40 mg/kg: Mus musculus, iv; for antiarrhythmic activity (in words): Aconitine, mice
Protocol: The antiarrhythmic effect of the compounds was also investigated in mice according to the P. W. Nwangwu, T. Holcslow procedure (4). Using Aconitine (5 mg/ml) as arrhythmogenic agent, the changes in the cardiac rhythm of the animals were recorded and the onset time of initial arrhythmia and/or of ventricular tachycardia were used as End point.
Antiarrhythmic agents display an increase in the latency time of initial ECG change.
(4) P. W. Nvangvu, T. L. Holcslow, Arch. Int. Pharmacodyn. 229, 219 (1977)
on the arrhythmia induced by Aconitine (5 γ/ml) in mice.
% increase of the time to onset of initial cardiac arrythmia

rat's ventricle strip = assay: antiarrhythmic effect, isolated rat ventricle strip test; conditions: for inhibition at 1 µM / activation at 1 µM: Rattus norvegicus, concentration 1·10^-6 M; for inhibition at 1 µM: decrease; for activation at 1 µM: increase
Text: (2) M. Libonati and G. Segre, Archivio Italiano di Scienze Farmacologiche. Serie XIII, Vol. X, pag. 3, (1960)
effect of some acyl derivatives (concentration 1 · 10^-6
of the formula (1) on the rat's ventricle strip test.
% variation versus basal value.

[2] = acute toxicity (tolerance) i.p. in mice, Weil method; conditions: mouse, in vivo, ip, Weil method (N = 5, K = 4)
Text: The tolerance of the Acyl-carnitines of the formula (I), as well as their salts administered by intraperitoneal route was investigated in mice using the Weil Method (1).
LD50, mg kg^-1 i.p. in mice,
of some acyl derivatives of formula (1).
Weil method (N = 5, K = 4)

rabbit hearts = assay: cardiokinetic effect on isolated rabbit heart (Langendorff) after anoxia; conditions: equal concentrations in perfusion fluid, Student's t test versus controls
Protocol: The cardiokinetic effect on isolated heart was also investigated as follows. Rabbit hearts isolated by the Langendorff method were perfused with oxygenized ringer solution at 38.2° C. The isometric contractions, electrocardiogram and coronary flow were recorded using a "Battaglia-Rangoni" polygraph. By removing the oxygen from the perfusion fluid, metabolic damage was induced in the cardiac muscle, up to an 80% reduction in the cardiac contractile force.
Under these conditions of prolonged anoxia the aerobic glycolysis of the myocardium is slowed down, accompanied by the storage of acid catabolites due to both the accumulation of pyruvic acid and its conversion to lactic acid which cannot be utilized because of the depression of pyridine enzymes, such as LDH (lactodehydrogenase). This has repercussions on the anaerobic glycolysis affecting an ever increasing number of enzymes, accompanied by a progressive and increasingly critical exhaustion of the myocardium. Thus a whole series of cardiac muscle fatigue levels occurs which can be observed by the behavior of the examined parameters, namely the contractile force, coronary flow, heart rate and cardiac rhythm. As soon as the contractile force was reduced by 80%, the perfusion fluid was once again oxygenized either without adding other compounds (controls) or with the addition of the compounds under examination.
Table 2 below gives the percentage values of the contractile force of the heart, showing a positive inotropic effect, calculated after 10 minutes from the interruption of the anoxic period (myocardial restoration).
of some acyl derivatives of formula (I) on the contractile
force of rabbit's heart. (Details are given in the text)

[3] = test system: plasma cholesterol, triglycerides and lipoproteins in rat; assay: plasma cholesterol, triglycerides and lipoproteins in rat treated with olive oil; format: in vivo; conditions: for lipoproteic pattern altered due to oil administration (in words): rats, single treatment
Protocol: In the rats the lipoproteic pattern altered due to an oil administration by gavage, was restored after a single treatment with d,l dipropyl ACAR; d,l ethyl exanoyl CAR; d,l 3 bromopropionyl CAR and d,l pyruvyl CAR.
The effect of some acyl derivatives of formula (I) on plasma cholesterol,
triglycerides and lipoproteins in rat
treated with olive oil, 15 ml kg^-1 orally. Mean Values ± SEM
Student "t" test .quadrature., Δ and indicate respectively a non
significant difference, a P ≤ 1% and 1%.

[4] = read-out: latency time increase % of controls, arrhythmias
[5] = read-out: latency time increase % of controls, tachycardia
[6] = read-out: maximed frequency (- %), % variation versus basal value
[7] = read-out: whole excitability (- %), % variation versus basal value
[8] = read-out: refractory period (+ %), % variation versus basal value
[9] = read-out: rheobase (+ %), % variation versus basal value

SMILES | change in vivo at 300 mg/kg [1, 4] | change in vivo at 300 mg/kg [1, 5] | inhibition at 1 µM (rat's ventricle strip; [6]) | inhibition at 1 µM (rat's ventricle strip; [7]) | activation at 1 µM (rat's ventricle strip; [8]) | activation at 1 µM (rat's ventricle strip; [9]) | LD50 [2] | change in vivo at 150 mg/kg [1, 4] | change in vivo at 150 mg/kg [1, 5] | other results
C[N+](C)(C)CC(CC(=O)[O-])OC(=O)CCCCl (racemic) [d,l 4-Cl--butyryl CAR] | 20% | 10% | 60.2% | 55.1% | 38.3% | 35.2% | 850 mg/kg |  |  | antiarrhythmic properties (in words) (rat's ventricle strip; isolated rat ventricle method): most clear out antiarrhythmic properties
C[N+](C)(C)C[C@@H](CC(=O)[O-])OC(=O)CCBr [l 3-Br--propionyl CAR] |  |  | 50.5% | 60.2% | 45.1% | 42.4% | 960 mg/kg | 25% | 12% | 
C[N+](C)(C)CC(CC(=O)[O-])OC(=O)C=Cc1ccc(Cl)cc1 (racemic) [d,l p-chlorocinnamoyl CAR] | 25% | 10% | 25.1% | 22.2% | 22.3% | 20.4% | 935 mg/kg |  |  | 
C=C[C@H]1C[N@@]2CC[C@H]1C[C@@H]2[C@@H](O)c1ccnc2ccc(OC)cc12 [Quinidine, reference compound] |  |  | 72.5% | 191% | 57.4% | 51.2% |  |  |  | change in vivo at 89 mg/kg [1, 4]: 50%; change in vivo at 89 mg/kg [1, 5]: 41.7%
CC(C)(C)C(=O)O[C@H](CC(=O)[O-])C[N+](C)(C)C [l pivaloyl CAR] | 25% | 15% | 60.4% | 48.1% | 38.3% | 35.1% | 618 mg/kg |  |  | 
CC(C)(C)C(=O)OC(CC(=O)[O-])C[N+](C)(C)C (racemic) [d,l pivaloyl CAR] | 20% | 10% | 58.4% | 65.5% | 40.6% | 40.2% | 855 mg/kg |  |  | 
CCC(CC)C(=O)OC(CC(=O)[O-])C[N+](C)(C)C (racemic) [d,l diethyl ACAR] | 25% | 32% | 25.1% | 27.5% | 31.2% | 20.6% | 1200 mg/kg |  |  | 
C[N+](C)(C)CC(CC(=O)[O-])OC(=O)CCBr (centres unmarked) [bromopropionyl] |  |  |  |  |  |  |  |  |  | positive inotropic effect (in words) (rabbit hearts): greater positive inotropic effect than that of the other compounds under examination
C[N+](C)(C)CC(CC(=O)[O-])OC(=O)Cc1ccc2ccccc2c1 (racemic) [d,l naphtalene ACAR] |  |  | 41.2% | 40.1% | 39.3% | 41.2% | 880 mg/kg |  |  | change in vivo at 75 mg/kg [1, 4]: 25%; change in vivo at 75 mg/kg [1, 5]: 10%
CC(C)Cc1ccc(CC(=O)OC(CC(=O)[O-])C[N+](C)(C)C)cc1 (racemic) [d,l p-isobutyl phenyl ACAR] | 20% | 10% | 38.2% | 35.2% | 22.5% | 22.2% | 378 mg/kg |  |  | 
C[N+](C)(C)CC(CC(=O)[O-])OC(=O)CCC1CCCCC1 (racemic) [d,l cyclohexylpropionyl CAR] |  |  | 45.3% | 25.5% | 12.5% | 22.4% | 955 mg/kg | 70% | 55% | antiarrhythmic activity (in words) [1]: markedly exhibited
C[N+](C)(C)CC(CC(=O)[O-])OC(=O)C1CCCCC1 (racemic) [d,l cyclohexyl CAR] | 50% | 38% | 22.1% | 26.4% | 15.8% | 18.2% | 850 mg/kg |  |  | 
CCCC(CCC)C(=O)O[C@@H](CC(=O)[O-])C[N+](C)(C)C [d dipropyl ACAR] |  |  | 22.4% | 25.5% | 38.3% | 21.7% | 1600 mg/kg |  |  | change in vivo at 40 mg/kg [1, 4]: 50%; change in vivo at 40 mg/kg [1, 5]: 30%
C[N+](C)(C)CC(CC(=O)[O-])OC(=O)CCBr (racemic) [d,l 3-Br--propionyl CAR] |  |  | 17.3% | 39.7% | 40.2% | 26.1% | 950 mg/kg | 20% | 10% | Lipoproteins, VLDL ([3]; olive oil 15 ml kg^-1 orally, compound ip, mean ± SEM, N = 8, oil control 15.84 ± 1.53): 11.22 ± 1.22%; Lipoproteins, HDL ([3]; olive oil 15 ml kg^-1 orally, compound ip, mean ± SEM, N = 8, oil control 24.18 ± 2.15): 30.45 ± 2.87%; Lipoproteins, LDL ([3]; olive oil 15 ml kg^-1 orally, compound ip, mean ± SEM, N = 8, oil control 57.38 ± 2.25): 51.26 ± 2.49%; cholesterol ([3]; olive oil 15 ml kg^-1 orally, compound ip, mean ± SEM, N = 8, oil control 88.33 ± 2.96): 76.18 ± 3.02 mg/100 ml; triglycerides ([3]; olive oil 15 ml kg^-1 orally, compound ip, mean ± SEM, N = 8, oil control 213.66 ± 28.68): 123.48 ± 12.16 mg/100 ml; lipoproteic pattern altered due to oil administration (in words) [3]: restored
Cc1ccc(C=CC(=O)OC(CC(=O)[O-])C[N+](C)(C)C)cc1 (racemic) [d,l p-methylcinnamoyl CAR] |  |  | 38.6% | 71.1% | 45.3% | 32.4% | 620 mg/kg | 20% | 9% | 
C[N+](C)(C)CC(CC(=O)[O-])OC(=O)C=Cc1cccc(Br)c1 (racemic) [d,l m-bromocinnamoyl CAR] |  |  | 28.5% | 50.4% | 45.2% | 38.1% | 650 mg/kg | 40% | 28% | 
COc1ccc(C=CC(=O)OC(CC(=O)[O-])C[N+](C)(C)C)cc1 (racemic) [d,l p-methoxycinnamoyl CAR] |  |  | 22.2% | 31.5% | 36.1% | 22.2% | 440 mg/kg | 70% | 56% | antiarrhythmic activity (in words) [1]: markedly exhibited
CCCCC(CC)C(=O)OC(CC(=O)[O-])C[N+](C)(C)C (racemic) [d,l 2-ethylhexanoyl CAR] | 20% | 10% | 25.5% | 40.3% | 22.8% | 21.8% | 950 mg/kg |  |  | lipoproteic pattern altered due to oil administration (in words) [3]: restored
C[N+](C)(C)C[C@@H](CC(=O)[O-])OC(=O)C=Cc1cccc(C(F)(F)F)c1 [l trifluoromethylcinnamoyl CAR] |  |  | 32.7% | 60.5% | 40.1% | 39.2% | 540 mg/kg |  |  | change in vivo at 40 mg/kg [1, 4]: 60%; change in vivo at 40 mg/kg [1, 5]: 45%
C[N+](C)(C)CC(CC(=O)[O-])OC(=O)C=Cc1cccc(C(F)(F)F)c1 (racemic) [d,l trifluoromethylcinnamoyl CAR] |  |  | 41.3% | 24.3% | 25.7% | 19.5% | 845 mg/kg |  |  | change in vivo at 40 mg/kg [1, 4]: 50%; change in vivo at 40 mg/kg [1, 5]: 30%
